In PMC12446468, “Anti-inflammatory and cytotoxic assessment of flavonoids isolated from Viola odorata flowers with computer-guided docking study” (Scientific Reports, 2025):
In brackets after ≈: the same amount, converted by molar mass.

Assays:
[1] = MTT cytotoxicity assay, HepG2; format: cell-based, human; conditions: human, HepG2 cells (hepatocellular carcinoma), 48 h
Method: (§1) The assessment of cytotoxicity for the methanolic extract and isolated flavonoids was performed under controlled and sterile conditions within a Class II A2 Laminar flow biosafety cabinet. The carcinoma cell lines used in this study was obtained from Nawah Scientific Inc. (Cairo, Egypt). The cells were cultured in Dulbecco’s Modified Eagle’s Medium, enriched with 10% heat-inactivated fetal bovine serum, 100 U/ml penicillin, and 100 μg/ml streptomycin sulfate, maintained at […] in humidified incubators with 5% CO2. Upon reaching approximately 80% confluence, the cells were subcultured using a trypsin–EDTA solution. Harvesting occurred during the logarithmic growth phase. The methanolic extract and isolated flavonoids were dissolved in DMSO and stored at − 20 °C. For each experimental trial, the stock solutions were mixed with the culture medium to obtain the required final concentrations.
(§2) The effectiveness of the extract was compared to that of the reference drug, Doxorubicin. The percentage of cell viability was calculated by taking the ratio of the absorbance of the plant extract to that of the control, multiplied by 100. Furthermore, the IC50 value of the plant extract was determined using Sigma Plot software version 11 (Spw.exe) (https://sigmaplot.software.informer.com/11.0/).

[2] = tested on: hepatocellular carcinoma (HepG2); experiment: MTT cytotoxicity assay, HepG2; format: cell-based, human; conditions: Homo sapiens, HepG2, 48 h, read-out: IC50
Method: as §1, §2

[3] = tested on: human colonic epithelial cells (Caco-2); experiment: MTT cytotoxicity assay, Caco-2; format: cell-based; conditions: Homo sapiens, Caco-2, 48 h, read-out: IC50
Method: as §1, §2

[4] = MTT cytotoxicity assay, Caco-2; format: cell-based, human; conditions: human, Caco-2 cells (human colonic epithelial cells), 48 h
Method: as §1, §2

[5] = MTT cytotoxicity assay, HTC-116; format: cell-based, human; conditions: human, HTC-116 cells (human colorectal carcinoma), 48 h
Method: as §1, §2

[6] = tested on: human colorectal carcinoma cells (HTC-116); experiment: MTT cytotoxicity assay, HTC-116; format: cell-based; conditions: Homo sapiens, HTC-116, 48 h, read-out: IC50
Method: as §1, §2

For COc1cccc2c1C(=O)c1c(O)c3c(c(O)c1C2=O)C[C@@](O)(C(=O)CO)C[C@@H]3O[C@H]1C[C@H](N)[C@H](O)[C@H](C)O1 [Doxorubicin, reference compound], the cytotoxicity at 48 h, 6.25 µg/ml ([1]; HepG2, 6.25 ug/ml) was 31.8%, the viability at 48 h, 6.25 µg/ml ([1]; HepG2, 6.25 ug/ml, read-out: % Cell viability) was 68.2% and the cytotoxicity at 48 h, 12.5 µg/ml ([1]; HepG2, 12.5 ug/ml) was 37.7%. For the same molecule, the viability at 48 h, 12.5 µg/ml ([1]; HepG2, 12.5 ug/ml, read-out: % Cell viability) was 62.3%, the cytotoxicity at 48 h, 25 µg/ml ([1]; HepG2, 25 ug/ml) was 60.1% and the viability at 48 h, 25 µg/ml ([1]; HepG2, 25 ug/ml, read-out: % Cell viability) was 39.9%. It also gave a cytotoxicity at 48 h, 50 µg/ml ([1]; HepG2, 50 ug/ml) of 76%, a viability at 48 h, 50 µg/ml ([1]; HepG2, 50 ug/ml, read-out: % Cell viability) of 24% and a cytotoxicity at 48 h, 100 µg/ml ([1]; HepG2, 100 ug/ml) of 92%. For the same molecule, the viability at 48 h, 100 µg/ml ([1]; HepG2, 100 ug/ml, read-out: % Cell viability) was 7.95%, the IC50 [2] was 23.6 µg/mL (≈ 43.3 µM) and the IC50 [3] was 27.1 µg/mL (≈ 49.9 µM). For the same molecule, the cytotoxicity at 48 h, 6.25 µg/ml ([4]; Caco-2, 6.25 ug/ml) was 28.1%, the viability at 48 h, 6.25 µg/ml ([4]; Caco-2, 6.25 ug/ml, read-out: % Cell viability) was 71.9% and the cytotoxicity at 48 h, 12.5 µg/ml ([4]; Caco-2, 12.5 ug/ml) was 41.6%. The viability at 48 h, 12.5 µg/ml ([4]; Caco-2, 12.5 ug/ml, read-out: % Cell viability) was 58.4%, the cytotoxicity at 48 h, 25 µg/ml ([4]; Caco-2, 25 ug/ml) was 53.9% and the viability at 48 h, 25 µg/ml ([4]; Caco-2, 25 ug/ml, read-out: % Cell viability) was 46.1%. It also gave a cytotoxicity at 48 h, 50 µg/ml ([4]; Caco-2, 50 ug/ml) of 71.2%, a viability at 48 h, 50 µg/ml ([4]; Caco-2, 50 ug/ml, read-out: % Cell viability) of 28.8% and a cytotoxicity at 48 h, 100 µg/ml ([4]; Caco-2, 100 ug/ml) of 92.1%. The viability at 48 h, 100 µg/ml ([4]; Caco-2, 100 ug/ml, read-out: % Cell viability) was 7.87%, the cytotoxicity at 48 h, 6.25 µg/ml ([5]; HTC-116, 6.25 ug/ml) was 31% and the viability at 48 h, 6.25 µg/ml ([5]; HTC-116, 6.25 ug/ml, read-out: % Cell viability) was 69%. It also gave a cytotoxicity at 48 h, 12.5 µg/ml ([5]; HTC-116, 12.5 ug/ml) of 43.1%, a viability at 48 h, 12.5 µg/ml ([5]; HTC-116, 12.5 ug/ml, read-out: % Cell viability) of 56.9% and a cytotoxicity at 48 h, 25 µg/ml ([5]; HTC-116, 25 ug/ml) of 53.8%. The viability at 48 h, 25 µg/ml ([5]; HTC-116, 25 ug/ml, read-out: % Cell viability) was 46.2%, the cytotoxicity at 48 h, 50 µg/ml ([5]; HTC-116, 50 ug/ml) was 70% and the viability at 48 h, 50 µg/ml ([5]; HTC-116, 50 ug/ml, read-out: % Cell viability) was 30%. The cytotoxicity at 48 h, 100 µg/ml ([5]; HTC-116, 100 ug/ml) was 91.2%, the viability at 48 h, 100 µg/ml ([5]; HTC-116, 100 ug/ml, read-out: % Cell viability) was 8.77% and the IC50 [6] was 25.7 µg/mL (≈ 47.3 µM).
